Holding throughout (assay): Kinase panel profiling at 1 µmol/L (MSA or IMAP), percentage inhibition
Common to all, as to format: biochemical

For assay [1], the target named is T1, panel of 255 wild-type kinases (Homo sapiens, UniProt O14757).
T1 sequence (O14757 1-476): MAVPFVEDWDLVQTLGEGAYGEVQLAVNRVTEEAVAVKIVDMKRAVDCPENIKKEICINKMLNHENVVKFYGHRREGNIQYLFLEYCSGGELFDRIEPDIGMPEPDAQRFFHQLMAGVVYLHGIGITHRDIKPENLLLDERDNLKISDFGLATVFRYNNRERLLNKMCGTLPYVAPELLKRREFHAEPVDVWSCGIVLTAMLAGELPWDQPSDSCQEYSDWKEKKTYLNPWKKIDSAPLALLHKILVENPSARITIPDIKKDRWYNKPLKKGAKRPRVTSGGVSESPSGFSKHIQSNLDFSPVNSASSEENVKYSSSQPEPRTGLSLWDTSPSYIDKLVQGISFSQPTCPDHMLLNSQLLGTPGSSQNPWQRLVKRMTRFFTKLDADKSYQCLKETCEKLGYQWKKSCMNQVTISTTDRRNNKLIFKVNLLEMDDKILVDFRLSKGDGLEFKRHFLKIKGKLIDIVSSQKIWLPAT
The following applies: CHK1 kinase assay; 1 µmol/L single concentration; read-out: %-inhibition CHK1.

Assay [2] has as its target panel of 255 wild-type kinases (Homo sapiens, UniProt P05129). The following applies: kinase PKCγ; 1 µmol/L single concentration; read-out: %-inhibition at 1 µmol/L, PKCγ.
Assay [3] has as its target panel of 255 wild-type kinases (Homo sapiens, UniProt P11309). The conditions noted are these: kinase PIM1; 1 µmol/L single concentration; read-out: %-inhibition at 1 µmol/L, PIM1.
Assay [4] concerns the target T2, panel of 255 wild-type kinases (Homo sapiens, UniProt P15735).
T2 sequence (P15735 1-406): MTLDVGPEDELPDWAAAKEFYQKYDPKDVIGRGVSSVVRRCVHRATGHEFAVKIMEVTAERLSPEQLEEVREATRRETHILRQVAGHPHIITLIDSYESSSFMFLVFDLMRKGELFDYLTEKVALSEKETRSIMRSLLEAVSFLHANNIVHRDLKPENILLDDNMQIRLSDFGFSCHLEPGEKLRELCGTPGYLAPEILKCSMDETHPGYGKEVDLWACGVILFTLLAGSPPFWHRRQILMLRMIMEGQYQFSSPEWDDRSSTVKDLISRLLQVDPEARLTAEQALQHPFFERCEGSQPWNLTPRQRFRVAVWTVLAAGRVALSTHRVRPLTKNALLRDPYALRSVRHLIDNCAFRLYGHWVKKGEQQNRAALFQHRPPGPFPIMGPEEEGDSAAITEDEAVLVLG
The following applies: kinase PHKG2; 1 µmol/L single concentration; read-out: %-inhibition at 1 µmol/L, PHKG2.

Assay [5] deals with panel of 255 wild-type kinases (Homo sapiens, UniProt P22455). The conditions noted are these: kinase FGFR4; 1 µmol/L single concentration; read-out: %-inhibition at 1 µmol/L, FGFR4.
Assay [6] deals with panel of 255 wild-type kinases (Homo sapiens, UniProt P27361). The conditions noted are these: kinase Erk1; 1 µmol/L single concentration; read-out: %-inhibition at 1 µmol/L, Erk1.
Assay [7] has as its target panel of 255 wild-type kinases (Homo sapiens, UniProt P28482). The conditions noted are these: kinase Erk2; 1 µmol/L single concentration; read-out: %-inhibition at 1 µmol/L, Erk2.
In assay [8] the target is panel of 255 wild-type kinases (Homo sapiens, UniProt P49761). The following applies: kinase CLK3; 1 µmol/L single concentration; read-out: %-inhibition at 1 µmol/L, CLK3.
For assay [9], the target named is panel of 255 wild-type kinases (Homo sapiens, UniProt P51812). The following applies: kinase RSK2; 1 µmol/L single concentration; read-out: %-inhibition at 1 µmol/L, RSK2.
Assay [10] concerns the target panel of 255 wild-type kinases (Homo sapiens, UniProt Q16644). The conditions noted are these: MAPKAPK3; 1 µmol/L single concentration; read-out: %-inhibition, MAPKAPK3.
In assay [11] the target is panel of 255 wild-type kinases (Homo sapiens, UniProt Q8N568). The following applies: kinase DCAMKL2; 1 µmol/L single concentration; read-out: %-inhibition at 1 µmol/L, DCAMKL2.
For assay [12], the target named is T3, panel of 255 wild-type kinases (Homo sapiens, UniProt Q92630).
T3 sequence (Q92630 1-601): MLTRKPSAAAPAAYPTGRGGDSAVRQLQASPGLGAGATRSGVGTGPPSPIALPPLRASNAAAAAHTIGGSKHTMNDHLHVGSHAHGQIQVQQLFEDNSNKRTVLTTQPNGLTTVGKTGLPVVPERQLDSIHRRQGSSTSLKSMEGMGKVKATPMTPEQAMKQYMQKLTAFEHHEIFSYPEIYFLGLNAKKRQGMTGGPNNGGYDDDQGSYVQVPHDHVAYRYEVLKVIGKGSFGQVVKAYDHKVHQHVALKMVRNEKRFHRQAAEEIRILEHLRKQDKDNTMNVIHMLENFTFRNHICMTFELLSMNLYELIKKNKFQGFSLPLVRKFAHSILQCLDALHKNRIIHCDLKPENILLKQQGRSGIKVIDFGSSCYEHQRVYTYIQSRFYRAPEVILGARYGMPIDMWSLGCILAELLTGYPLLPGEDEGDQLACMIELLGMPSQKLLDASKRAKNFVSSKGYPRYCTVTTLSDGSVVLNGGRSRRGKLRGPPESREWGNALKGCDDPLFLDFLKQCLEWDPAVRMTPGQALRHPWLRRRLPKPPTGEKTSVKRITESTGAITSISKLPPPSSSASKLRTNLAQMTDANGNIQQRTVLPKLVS
The following applies: kinase DYRK2; 1 µmol/L single concentration; read-out: %-inhibition at 1 µmol/L, DYRK2.

In assay [13] the target is panel of 255 wild-type kinases (Homo sapiens, UniProt Q9BYP7). The following applies: kinase WNK3; 1 µmol/L single concentration; read-out: %-inhibition at 1 µmol/L, WNK3.
Assay [14] deals with panel of 255 wild-type kinases (Homo sapiens, UniProt Q9H0K1). The following applies: kinase QIK; 1 µmol/L single concentration; read-out: %-inhibition at 1 µmol/L, QIK.
Assay [15] concerns the target panel of 255 wild-type kinases (Homo sapiens, UniProt Q9P286). The following applies: PAK5; 1 µmol/L single concentration; read-out: %-inhibition, PAK5.

`Cn1cc(-c2cc3c(N4CCN(c5ncc([C@@](C)(N)c6ccc(F)cc6)cn5)CC4)ncnn3c2)cn1` [avapritinib]: the inhibition at 1 µM in assay [1] was 40%; in assay [2] it was -2.11%; in [3] it was 24%; in [4], 5.4%; in [5] it was 41%; in assay [6], -1.84%. Besides, the inhibition at 1 µM is 5% in assay [7]; 3.76% in [8]; 2.57% in assay [9]; -4% in [10]; 3.65% in [11]; 56% in [12]. The inhibition at 1 µM in [13] was -0.0892%; in [14] it was 44%; in assay [15] it was 4.51%.
As to `C[C@H](Nc1ncnc2nc[nH]c12)c1cc2cccc(Cl)c2c(=O)n1-c1ccccc1` [duvelisib], the inhibition at 1 µM is 5.69% in assay [1]; -4.38% in assay [2]; -0.908% in [3]; 0.785% in assay [4]; 5% in [5]; 2.77% in assay [6]. For the same compound, the inhibition at 1 µM in assay [7] was 0.0602%; in assay [8] it was 1.78%; in assay [9] it was -3.62%; in [10] it was -13%; in assay [11] it was 7.51%; in assay [12], 8%. For the same compound, the results for the inhibition at 1 µM in assay [13], in assay [14] and in assay [15] were -0.718%, 2.15% and -1%, respectively.
In the case of `COc1cc2ncnc(Nc3ccc(F)c(Cl)c3)c2cc1NC(=O)/C=C/CN1CCCCC1` [dacomitinib], the inhibition at 1 µM in assay [1] is 10%; in [2] it was 4%; in assay [3], 32%; in assay [4], 11%; in [5], -4.42%; in assay [6], 2.66%. For the same compound, the inhibition at 1 µM in assay [7] is -1.48%; in [8] it was 2.5%; in assay [9] it was 8%; in assay [10], -25%; in assay [11], 1.42%; in assay [12] it was 38%. Further, the inhibition at 1 µM in assay [13] is -2.62%; in assay [14], 68%; in assay [15] it was 4.29%.
With `CCN1CCN(c2ccc(Nc3cc(N(C)C(=O)Nc4c(Cl)c(OC)cc(OC)c4Cl)ncn3)cc2)CC1` [infigratinib], the inhibition at 1 µM is -1.07% in assay [1]; 0.114% in assay [2]; -2.33% in [3]; 1.64% in assay [4]; -4% in [6]; -4% in assay [7]. Also, the inhibition at 1 µM in assay [8] is 12%; in assay [9], -7%; in [10], -17%; in assay [11], 4.25%; in assay [12], -3.43%; in assay [13], 1.62%. In addition, the inhibition at 1 µM is 26% in assay [14] and 2.49% in assay [15].
With `CN1CCN(c2ccc(C(=O)Nc3n[nH]c4ccc(Cc5cc(F)cc(F)c5)cc34)c(NC3CCOCC3)c2)CC1` [entrectinib], the inhibition at 1 µM was 14% in assay [1]; 1% in assay [2]; -6% in assay [3]; 41% in assay [4]; 38% in assay [5]; -0.529% in [6]. The inhibition at 1 µM is -0.572% in assay [7]; 3.46% in assay [8]; -10% in assay [10]; 16% in assay [11]; 11% in assay [12]; 8.51% in [13]. Further, the inhibition at 1 µM in assay [14] was determined as 6.5%; in assay [15] it was 25%.
